Results as given in publication PMC9967108 (Viruses, 2023).

Key:
main protease = main protease (Severe acute respiratory syndrome coronavirus 2, UniProt P0DTD1); test: Dissociation constant (KD) test by fluorescence titration; assay type: binding, SARS-CoV-2; settings: inhibitor titration, intrinsic fluorescence, Scatchard plot
SARS-CoV-2 Mpro = SARS-CoV-2 Mpro (Severe acute respiratory syndrome coronavirus 2, UniProt P0DTD1); test: Mpro protease activity assay (IC50 test, fluorogenic substrate)

SMILES	Kd (main protease) [µM]	IC50 (SARS-CoV-2 Mpro) [µM]
Cc1ccc(C2CC(c3cccs3)=NN2C(=O)CSc2nnc(CNC(=O)c3ccco3)n2-c2cccc(Cl)c2)cc1 (stereo not drawn) [LC24-20]	20 ± 1.27	32.9
Cc1ccc(CNC(=O)C2CC(n3cnnn3)CN2Cc2ccc(OCc3ccccc3)cc2)cc1 (stereo not drawn) [CB-25]	10.8 ± 1.32	22.7
Cc1cc(CNC(=O)Nn2cnc3ccccc32)ccc1F [CP-1]	5.08 ± 0.38	18.5
